Measurements taken from paper PMC3683333, “^11C-LY2428703, a positron emission tomographic radioligand for the metabotropic glutamate receptor 1, is unsuitable for imaging in monkey and human brains” (EJNMMI Research, 2013).

Columns and labels:
mGluR1 [1] = target: T1, mGluR1 (Macaca mulatta, UniProt I2CU04); test: Saturation binding assay with [^3H]LY456066, monkey cerebellar membranes; design: species or system rhesus monkeys; conditions: monkeys
T1 construct: P2 membrane fractions were prepared from the cerebella of; from tissue; host or cells: rhesus monkey cerebellum, P2 membrane fraction
Experimental: (§1) P2 membrane fractions were prepared from the cerebella of male Sprague–Dawley rats (n = 3), male rhesus monkeys (n = 3), and female humans (n = 4). […] Nonspecific binding was defined by heterologous displacement of 1 μM LY480084 (mGlu1 antagonist) in select wells. Plates were incubated on ice for 75 min and membranes harvested on 0.3% polyethylenimine pretreated Wallac filter mats using a Tomtec Harvester MachII (Tomtec, Hamden, CT, USA). Dissociation constant (KD) and receptor density (Bmax) values were obtained in GraphPad Prism using standard nonlinear one-site binding equations. Data are presented as mean ± SEM (n = 3 to 4); one-way analysis of variance followed by Tukey's post hoc test.

[2] = In vitro stability in human blood and plasma; format: in vitro ADME; conditions: room temperature, 30 min
Experimental: Nonradioactive anticoagulated blood was obtained on the day of study from either human or nonhuman primates. Aliquots of ^11C-LY2428703 (about 150 kBq) were added to 0.5 mL of whole blood or 0.5 mL of plasma. Samples were incubated at room temperature for 30 min, after which either 450 μL of the radioactive plasma was added to 720 μL of acetonitrile or 200 μL of the radioactive whole blood was added to 300 μL of water. The tube containing the blood suspension was shaken well to mix and lyse the blood cells. Seven hundred and twenty microliters of acetonitrile was subsequently added and mixed well to precipitate the proteins, followed by 100 μL of water, which was again re-mixed. Radioactivity in the tubes was measured in a gamma counter and then centrifuged at 10,000×g for 1 min. The clear supernatant liquid was injected into the high-performance liquid chromatography (HPLC) column and the precipitate counted to calculate the recovery of radioactivity into the acetonitrile.
The stability of the radioligand in whole blood or plasma was calculated as the ratio of the HPLC % composition of samples divided by the radiochemical purity of the radioligand.

mGluR1 [3] = target: mGluR1 (Homo sapiens, UniProt Q13255); test: Saturation binding assay with [^3H]LY456066, human cerebellar membranes; design: P2 membrane fractions were prepared from the cerebella of; from tissue; host or cells: human cerebellum, P2 membrane fraction; conditions: humans
Experimental: as §1

T1 sequence (I2CU04 19-1195): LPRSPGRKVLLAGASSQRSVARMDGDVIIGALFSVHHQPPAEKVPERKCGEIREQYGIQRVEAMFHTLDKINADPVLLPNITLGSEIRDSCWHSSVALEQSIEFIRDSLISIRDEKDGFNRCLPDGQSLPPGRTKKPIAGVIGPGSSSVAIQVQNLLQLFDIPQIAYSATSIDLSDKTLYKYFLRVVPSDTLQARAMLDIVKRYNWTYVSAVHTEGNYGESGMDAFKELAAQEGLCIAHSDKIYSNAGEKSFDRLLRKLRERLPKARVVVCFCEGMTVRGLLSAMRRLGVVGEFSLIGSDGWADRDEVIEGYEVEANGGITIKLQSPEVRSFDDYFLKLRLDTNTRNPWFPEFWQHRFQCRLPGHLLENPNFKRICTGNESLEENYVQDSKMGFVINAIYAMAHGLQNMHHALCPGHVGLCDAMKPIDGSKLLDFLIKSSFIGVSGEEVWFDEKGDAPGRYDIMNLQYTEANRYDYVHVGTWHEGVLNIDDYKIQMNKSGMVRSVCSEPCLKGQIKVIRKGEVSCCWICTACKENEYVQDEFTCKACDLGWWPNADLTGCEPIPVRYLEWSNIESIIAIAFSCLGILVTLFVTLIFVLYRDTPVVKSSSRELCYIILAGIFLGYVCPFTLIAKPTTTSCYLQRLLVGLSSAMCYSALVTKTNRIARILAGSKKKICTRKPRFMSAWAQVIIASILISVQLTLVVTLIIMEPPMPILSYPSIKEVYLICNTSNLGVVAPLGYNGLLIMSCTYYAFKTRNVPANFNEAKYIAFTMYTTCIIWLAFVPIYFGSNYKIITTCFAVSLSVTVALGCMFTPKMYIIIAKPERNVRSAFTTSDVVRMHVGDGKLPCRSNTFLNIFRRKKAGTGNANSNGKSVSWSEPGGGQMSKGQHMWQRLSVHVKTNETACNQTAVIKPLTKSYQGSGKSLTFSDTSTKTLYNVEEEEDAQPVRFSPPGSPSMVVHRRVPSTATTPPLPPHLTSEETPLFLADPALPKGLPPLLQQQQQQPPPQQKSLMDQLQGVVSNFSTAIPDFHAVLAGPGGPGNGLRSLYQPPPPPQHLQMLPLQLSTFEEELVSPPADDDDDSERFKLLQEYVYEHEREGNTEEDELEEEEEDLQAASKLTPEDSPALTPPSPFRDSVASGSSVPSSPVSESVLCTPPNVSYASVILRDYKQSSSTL
mGluR1 (Homo sapiens, UniProt Q13255), sequence (Q13255 19-1194): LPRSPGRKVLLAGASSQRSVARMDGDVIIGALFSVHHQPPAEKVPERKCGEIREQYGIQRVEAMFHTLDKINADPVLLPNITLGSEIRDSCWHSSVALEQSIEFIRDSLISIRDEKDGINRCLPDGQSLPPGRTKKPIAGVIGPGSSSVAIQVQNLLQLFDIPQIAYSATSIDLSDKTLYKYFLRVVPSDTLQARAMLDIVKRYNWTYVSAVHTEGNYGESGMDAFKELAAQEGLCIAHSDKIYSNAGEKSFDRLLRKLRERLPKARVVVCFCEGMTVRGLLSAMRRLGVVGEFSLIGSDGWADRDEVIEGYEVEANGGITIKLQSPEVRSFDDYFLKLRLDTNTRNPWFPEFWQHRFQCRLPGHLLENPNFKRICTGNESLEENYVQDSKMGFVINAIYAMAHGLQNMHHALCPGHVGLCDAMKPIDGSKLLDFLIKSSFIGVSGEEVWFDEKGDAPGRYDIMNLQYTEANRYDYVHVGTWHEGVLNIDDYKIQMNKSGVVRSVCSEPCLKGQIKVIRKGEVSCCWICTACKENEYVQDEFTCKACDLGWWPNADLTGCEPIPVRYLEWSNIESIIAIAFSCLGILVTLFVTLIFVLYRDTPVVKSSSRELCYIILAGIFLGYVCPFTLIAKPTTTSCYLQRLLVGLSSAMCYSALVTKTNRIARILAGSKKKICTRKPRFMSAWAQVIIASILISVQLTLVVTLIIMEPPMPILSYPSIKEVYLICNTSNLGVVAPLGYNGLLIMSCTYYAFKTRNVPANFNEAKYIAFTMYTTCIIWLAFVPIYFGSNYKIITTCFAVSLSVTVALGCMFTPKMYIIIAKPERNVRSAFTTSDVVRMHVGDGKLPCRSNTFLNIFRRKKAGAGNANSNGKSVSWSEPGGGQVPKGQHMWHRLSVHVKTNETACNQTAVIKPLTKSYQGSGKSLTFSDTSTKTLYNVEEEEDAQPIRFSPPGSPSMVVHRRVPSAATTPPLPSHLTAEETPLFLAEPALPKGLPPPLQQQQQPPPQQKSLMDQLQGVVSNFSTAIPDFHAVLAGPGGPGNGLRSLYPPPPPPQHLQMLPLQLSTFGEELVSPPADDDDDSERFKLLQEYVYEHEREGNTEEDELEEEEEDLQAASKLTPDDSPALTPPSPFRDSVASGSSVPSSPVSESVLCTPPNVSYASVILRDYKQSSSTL

- fp × Bmax/KD (=VS), effective BP (mGluR1 [1]): 0.161
- tracer stability ([2]; human plasma): 99.4 ± 1.4%
- tracer stability ([2]; human whole blood): 99.5 ± 1.1%
- fp × Bmax/KD (=VS), effective BP (mGluR1 [3]): 0.016
Structure (SMILES): Cc1c(-c2ccc(O[11CH3])cc2)nsc1NC(=O)[C@@H]1C[C@H]1C [^11C-LY2428703]
